Source: patent US7686975B2, “Use of acylcyclohexanedione derivatives for improving the tolerance of plants to cold and/or frost” (BASF Aktiengesellschaft, priority 2003, dated 2010)

Columns and labels:
Assay type in all cases: in vivo
apple seedlings = test: Photochemical efficacy of electron transport (Fv/Fm, PAM fluorometer) in apple seedlings after simulated frost event; settings: Golden Delicious seedlings
Procedure: Intact photosynthesis in leaves and other green plant tissues is of utmost importance for frost resistance and the intensity of the subsequent regeneration processes. To study the effect of compounds I which were used in accordance with the invention, the photosynthesis rate of treated (a.5) to (e.5)) and untreated apple seedlings which had been subjected to a simulated frost event was determined.
The material used for the experiments was apple seedlings which had been grown from seeds of Golden Delicious apples following cold stratification under controlled-environment cabinet conditions (temperature approx. 20° C.; relative atmospheric humidity approx. […]; day:night=10.5:13.5 hours; light intensity approx. 200 μmol m^−2 s^−1) and which had three to four fully formed leaves at the point in time of treatment. Batches of 10 plants per combination were treated as follows:
To simulate the frost event, the plants were subjected to the following chill program: • removal from the controlled-environment cabinet (20° C.) • transfer into the chill cell to randomized positions at a height of approximately 40 cm for approx. 6 hours at 12° C. • 2 hours at 4° C. • 1.5 hours at 2° C. • 1 hour at 0° C. • 3.5 hours at −3° C. • controlled-environment cabinet (20° C.)
The photosynthesis rate of the stressed apple seedlings was subsequently determined with the aid of a pulse amplitude modulation fluorometer (PAM 2000, Heinz Walz GmbH, Effeltrich). The quotient Fv/Fm, which is determined, describes the amount of light energy captured by the photosynthesis apparatus of the plants which can be exploited for the production of assimilates. Fv represents the variable fluorescence, which corresponds to the difference between F0 (basal fluorescence, which is measured when a dark-adapted leaf is irradiated with fluorescence-exciting light) and Fm (maximum fluorescence of a dark-adapted leaf) (Fv/Fm=(Fm−F0)/Fm).

apple flowers [1] = test: Frost damage on apple flowers, naturally occurring frost event
Source text: To study the effect of compounds I used in accordance with the invention, flower buds or flowers of various apple varieties were sprayed to run-off point at different stages and different points in time with prohexadione-calcium in the form of the commercial preparation Regalis® from BASF AG in the form of 10% strength granules with 250 ppm of active substance or with a mixture of vitamin E and glycerol (see treatments a) to d)) and subjected to a naturally occurring or simulated frost event during mid-bloom. The treated flowering branches and untreated flowering branches which had been subjected to the same frost event and which acted as control, were subsequently transferred for 2 to 4 days into a greenhouse with temperatures ranging from 15 to 25° C., and the floral injury was assessed. Apple branches with flower buds or flowers (R. Cox) were treated as described under a.3), b.3), c.3) or d.3) and subsequently subjected to a naturally occurring frost event. The frost period lasted 5 days. The lowest temperature was reached on day two of the frost event and was −4° C. One day after the frost event, the treated flowering branches and untreated control branches were cut off. One day after the branches had been cut off, the floral damage was assessed by examining the individual flowers. At the time of evaluation, the flowers were in floral stage BBCH 56-57. Apple branches with flower buds or flowers (Jonagold) were treated analogously to Example 1.2.1 and exposed to the same frost event. At the time of evaluation, the flowers were in floral stage BBCH 57-59. Apple branches with flower buds or flowers (Boskoop) were treated as described under a.4), b.4), c.4) or d.4) and subsequently subjected to a naturally occurring frost event. The frost period lasted for one day. The lowest temperature was −1.2° C. Two days after the frost event, the treated flowering branches and untreated control branches were cut off, and one day after the branches had been cut off, the floral damage was assessed by examining the individual flowers. At the time of evaluation, the flowers were in floral stage BBCH 57-61.

apple flowers [2] = test: Frost damage on apple flowers, simulated frost event
Source text: To study the effect of compounds I used in accordance with the invention, flower buds or flowers of various apple varieties were sprayed to run-off point at different stages and different points in time with prohexadione-calcium in the form of the commercial preparation Regalis® from BASF AG in the form of 10% strength granules with 250 ppm of active substance or with a mixture of vitamin E and glycerol (see treatments a) to d)) and subjected to a naturally occurring or simulated frost event during mid-bloom. The treated flowering branches and untreated flowering branches which had been subjected to the same frost event and which acted as control, were subsequently transferred for 2 to 4 days into a greenhouse with temperatures ranging from 15 to 25° C., and the floral injury was assessed. Apple branches with flower buds or flowers (R. Cox) were treated as specified under a.1), b.1), c.1) or d.1) and subsequently subjected to a simulated frost event. Nine days (a.1)) or one day (b.1)-d.1)) after the treatment, the treated flowering branches and untreated control branches were cut off and subjected to a simulated frost event. The temperature program of the simulated frost event was as follows: • chilling from 12° C. to 4° C. within 30 minutes • one hour at 4° C. • chilling from 4° C. to 2° C. within 15 minutes • 75 minutes at 2° C. • chilling from 2° C. to −3° C. within 30 minutes • 150 minutes at −3° C. Two days after the frost event, the floral damage was assessed by examining the individual flowers. At the time of evaluation, the flowers were in the floral stage BBCH 54-56 (BBCH=Biologische Bundesanstalt für Land- und Forstwirtschaft, Bundessortenamt und Chemische Industrie [Federal Biological Institute for Agriculture and Forestry, Federal Office for Crop Plant Varieties, Chemical Industry]). Those flowers whose ovary is brownish in color are considered as damaged (destroyed). The data which represent the percentage of damaged flowers correspond to the mean±standard deviation. A statistically significant difference (critical difference: 5%) between the means of the various measurement series is identified by different letters. Apple branches with flower buds or flowers (R. Cox) were treated analogously to Example 1.1.1, but remained for 210 minutes in the frost chamber at −3° C. Apple branches with flower buds or flowers (Jonagold) were treated analogously to Example 1.1.1. They remained for 150 minutes in the frost chamber at −3° C. At the time of evaluation, the flowers were in floral stage BBCH 56-57. Apple branches with flower buds or flowers (Jonagold) were treated analogously to Example 1.1.3, but remained for 210 minutes in the frost chamber at −3° C. Apple branches with flower buds or flowers (Gala) were treated as described under a.2), b.2), c.2) or d.2) and subsequently subjected to a simulated frost event. 11 days (a.2)) or two days (b.2)-d.2)) after the treatment, the treated flowering branches and untreated control branches were cut off and subjected to a simulated frost event. The temperature program of the simulated frost event corresponded to the one in Example 1.1.1. Four days after the frost event, the floral damage was assessed by examining the individual flowers. At the time of evaluation, the flowers were in floral stage BBCH 57-59. Apple branches with flower buds or flowers (Boskoop) were treated analogously to Example 1.1.5. At the time of evaluation, the flowers were in floral stage BBCH 59-61. They remained at −3° C. for 150 minutes.

CCC(=O)C1=C([O-])CC(C(=O)[O-])CC1=O.[Ca+2] (centres unmarked) [prohexadione-calcium]
Fv/Fm (apple seedlings; sprayed 2 days prior to simulated frost (3.5 hours at −3° C.), prohexadione-calcium 50 ppm, 24 hours after frost): survived the frost event virtually undamaged | Fv/Fm (apple seedlings; sprayed 2 days prior to simulated frost (3.5 hours at −3° C.); prohexadione-calcium 50 ppm; 24 hours after frost; listed as c.5)): 0.804 | Fv/Fm (apple seedlings; sprayed 8 days prior to simulated frost (3.5 hours at −3° C.), 50 ppm prohexadione-calcium, 24 hours after frost): survived the frost event virtually undamaged | Fv/Fm (apple seedlings; sprayed 8 days prior to simulated frost (3.5 hours at −3° C.); 50 ppm prohexadione-calcium; 24 hours after frost; listed as b.5)): 0.809 | Fv/Fm (apple seedlings; sprayed 21 days prior to simulated frost (3.5 hours at −3° C.), 50 ppm prohexadione-calcium, 24 hours after frost): survived the frost event virtually undamaged | Fv/Fm (apple seedlings; sprayed 21 days prior to simulated frost (3.5 hours at −3° C.); 50 ppm prohexadione-calcium; 24 hours after frost; listed as a.5)): 0.812 | Percentage of damage to flowers (apple flowers [1]; Boskoop, buds sprayed thirteen days prior to natural frost, prohexadione-calcium 250 ppm, frost one day, lowest −1.2° C., mean±SD): 84.3 ± 3.3% | Percentage of damage to flowers (apple flowers [1]; Boskoop, flowers (mid-bloom) sprayed five days prior to natural frost, prohexadione-calcium 250 ppm, frost one day, lowest −1.2° C., mean±SD): significantly fewer | Percentage of damage to flowers (apple flowers [1]; Boskoop, flowers (mid-bloom) sprayed five days prior to natural frost; prohexadione-calcium 250 ppm; frost one day, lowest −1.2° C.; mean±SD; listed as b.4)): 74.7 ± 3.0% | Percentage of damage to flowers (apple flowers [1]; Jonagold, buds sprayed ten days prior to natural frost, prohexadione-calcium 250 ppm, frost period 5 days, lowest −4° C., mean±SD): 67.5 ± 2.3% | Percentage of damage to flowers (apple flowers [1]; Jonagold, flowers (mid-bloom) sprayed two days prior to natural frost, prohexadione-calcium 250 ppm, frost period 5 days, lowest −4° C., mean±SD): 67.7 ± 2.6% | Percentage of damage to flowers (apple flowers [1]; R. Cox, buds sprayed ten days prior to natural frost, prohexadione-calcium 250 ppm, frost period 5 days, lowest −4° C., mean±SD): reduced floral damage | Percentage of damage to flowers (apple flowers [1]; R. Cox; buds sprayed ten days prior to natural frost; prohexadione-calcium 250 ppm; frost period 5 days, lowest −4° C.; mean±SD; listed as a.3)): 88.3 ± 1.3% | Percentage of damage to flowers (apple flowers [1]; R. Cox, flowers (mid-bloom) sprayed two days prior to natural frost, prohexadione-calcium 250 ppm, frost period 5 days, lowest −4° C., mean±SD): reduced floral damage | Percentage of damage to flowers (apple flowers [1]; R. Cox, flowers (mid-bloom) sprayed two days prior to natural frost; prohexadione-calcium 250 ppm; frost period 5 days, lowest −4° C.; mean±SD; listed as b.3)): 76.6 ± 1.7% | Percentage of damage to flowers (apple flowers [2]; Boskoop, buds sprayed eleven days prior to simulated frost, prohexadione-calcium 250 ppm, 150 minutes at −3° C., mean±SD): significantly fewer | Percentage of damage to flowers (apple flowers [2]; Boskoop; buds sprayed eleven days prior to simulated frost; prohexadione-calcium 250 ppm; 150 minutes at −3° C.; mean±SD; listed as a.2)): 33.6 ± 4.1% | Percentage of damage to flowers (apple flowers [2]; Boskoop, flowers (mid-bloom) sprayed two days prior to simulated frost, prohexadione-calcium 250 ppm, 150 minutes at −3° C., mean±SD): significantly fewer | Percentage of damage to flowers (apple flowers [2]; Boskoop, flowers (mid-bloom) sprayed two days prior to simulated frost; prohexadione-calcium 250 ppm; 150 minutes at −3° C.; mean±SD; listed as b.2)): 36.8 ± 4.2% | Percentage of damage to flowers (apple flowers [2]; Gala, buds sprayed eleven days prior to simulated frost, prohexadione-calcium 250 ppm, 150 minutes at −3° C., assessed four days after frost, mean±SD): tends to reduce the damage | Percentage of damage to flowers (apple flowers [2]; Gala; buds sprayed eleven days prior to simulated frost; prohexadione-calcium 250 ppm; 150 minutes at −3° C.; assessed four days after frost; mean±SD; listed as a.2)): 5.2 ± 1.8% | Percentage of damage to flowers (apple flowers [2]; Gala, flowers (mid-bloom) sprayed two days prior to simulated frost, prohexadione-calcium 250 ppm, 150 minutes at −3° C., assessed four days after frost, mean±SD): 8.8 ± 2.5% | Percentage of damage to flowers (apple flowers [2]; Jonagold, buds sprayed nine days prior to simulated frost, prohexadione-calcium 250 ppm, 150 minutes at −3° C., mean±SD): significantly fewer | Percentage of damage to flowers (apple flowers [2]; Jonagold; buds sprayed nine days prior to simulated frost; prohexadione-calcium 250 ppm; 150 minutes at −3° C.; mean±SD; listed as a.1)): 54.4 ± 3.2% | Percentage of damage to flowers (apple flowers [2]; Jonagold, buds sprayed nine days prior to simulated frost, prohexadione-calcium 250 ppm, 210 minutes at −3° C., mean±SD): significantly less damage | Percentage of damage to flowers (apple flowers [2]; Jonagold; buds sprayed nine days prior to simulated frost; prohexadione-calcium 250 ppm; 210 minutes at −3° C.; mean±SD; listed as a.1)): 43.8 ± 4.2% | Percentage of damage to flowers (apple flowers [2]; Jonagold, flowers (mid-bloom) sprayed one day prior to simulated frost, prohexadione-calcium 250 ppm, 150 minutes at −3° C., mean±SD): 69.0 ± 2.9% | Percentage of damage to flowers (apple flowers [2]; Jonagold, flowers (mid-bloom) sprayed one day prior to simulated frost, prohexadione-calcium 250 ppm, 210 minutes at −3° C., mean±SD): significantly less damage | Percentage of damage to flowers (apple flowers [2]; Jonagold, flowers (mid-bloom) sprayed one day prior to simulated frost; prohexadione-calcium 250 ppm; 210 minutes at −3° C.; mean±SD; listed as b.1)): 66.0 ± 2.7% | Percentage of damage to flowers (apple flowers [2]; R. Cox, buds sprayed nine days prior to simulated frost, prohexadione-calcium 250 ppm, 210 minutes at −3° C., mean±SD): significantly fewer | Percentage of damage to flowers (apple flowers [2]; R. Cox; buds sprayed nine days prior to simulated frost; prohexadione-calcium 250 ppm; 210 minutes at −3° C.; mean±SD; listed as a.1)): 6.0 ± 1.2% | Percentage of damage to flowers (apple flowers [2]; R. Cox, buds sprayed to run-off nine days prior to simulated frost, prohexadione-calcium 250 ppm, 150 minutes at −3° C., assessed two days after frost, mean±SD): significantly fewer | Percentage of damage to flowers (apple flowers [2]; R. Cox; buds sprayed to run-off nine days prior to simulated frost; prohexadione-calcium 250 ppm; 150 minutes at −3° C.; assessed two days after frost; mean±SD; listed as a.1)): 15.6 ± 2.5% | Percentage of damage to flowers (apple flowers [2]; R. Cox, flowers (mid-bloom) sprayed one day prior to simulated frost, prohexadione-calcium 250 ppm, 210 minutes at −3° C., mean±SD): 33.3 ± 2.6% | Percentage of damage to flowers (apple flowers [2]; R. Cox, flowers (mid-bloom) sprayed to run-off one day prior to simulated frost, prohexadione-calcium 250 ppm, 150 minutes at −3° C., assessed two days after frost, mean±SD): 23.1 ± 2.4%
